Experimental data reported in ChEMBL document CHEMBL1145829, “Estrogen receptor modulators: identification and structure-activity relationships of potent ERalpha-selective tetrahydroisoquinoline ligands” (J Med Chem, 2003).

How the values were obtained:
MCF7 [1] = tested on: MCF7
MCF7 [2] = test: cells; details: Homo sapiens
Estrogen receptor beta [3] = target: T1, Estrogen receptor beta (Homo sapiens, UniProt Q92731)
Estrogen receptor beta [4] = target: T1, Estrogen receptor beta; remark: listed apart in the source
MCF7 [5] = test: cells; details: Homo sapiens; remark: listed apart in the source
Estrogen receptor [6] = target: T2, Estrogen receptor (Homo sapiens, UniProt P03372)
T2 sequence (P03372 whole entry): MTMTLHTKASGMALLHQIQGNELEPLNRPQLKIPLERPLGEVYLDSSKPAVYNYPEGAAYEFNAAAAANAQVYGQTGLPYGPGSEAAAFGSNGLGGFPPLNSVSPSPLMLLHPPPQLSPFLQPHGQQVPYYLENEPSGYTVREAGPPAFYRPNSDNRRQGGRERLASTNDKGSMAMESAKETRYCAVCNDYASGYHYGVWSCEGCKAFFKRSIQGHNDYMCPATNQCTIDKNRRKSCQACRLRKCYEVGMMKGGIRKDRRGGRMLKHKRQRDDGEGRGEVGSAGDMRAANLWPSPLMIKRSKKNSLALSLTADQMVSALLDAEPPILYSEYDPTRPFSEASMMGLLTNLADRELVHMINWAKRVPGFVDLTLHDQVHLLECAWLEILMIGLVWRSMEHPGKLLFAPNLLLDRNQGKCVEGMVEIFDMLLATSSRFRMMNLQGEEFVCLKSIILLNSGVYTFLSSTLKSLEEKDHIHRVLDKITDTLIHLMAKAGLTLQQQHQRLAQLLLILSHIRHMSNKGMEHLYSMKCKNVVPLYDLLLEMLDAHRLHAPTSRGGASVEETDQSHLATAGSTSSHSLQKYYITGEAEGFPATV

Estrogen receptor [7] = target: T2, Estrogen receptor; remark: listed apart in the source
[8] = Total clearance value was tested after peroral administration (5 mg/kg ) in conscious rat; type: ADME, organism-based; details: in vivo, po
in vivo = details: rat, po, 5 mg/kg
Rattus norvegicus = test: Maximal blood concentration after peroral administration (dose normalized) (5 mg/kg) in conscious rat; type: ADME, organism-based; parameters: dose 5 mg/kg, route oral; details: in vivo, po
[9] = Terminal half life was tested after peroral administration (5 mg/kg) in conscious rat; type: ADME, organism-based; details: in vivo, po
MCF7 [10] = tested on: MCF7; remark: listed apart in the source
Estrogen receptor [11] = target: T2, Estrogen receptor; test: Inhibition of estrogen receptor alpha mediated transcriptional activation

| Structure (SMILES) | Agonism (MCF7 [1]) | IC50 (MCF7 [2]) | IC50 (Estrogen receptor beta [3]) | IC50 (Estrogen receptor beta [4]) | EC50 (MCF7 [5]) | IC50 (Estrogen receptor [6]) | IC50 (Estrogen receptor [7]) | CL/F [8] | bioavailability (in vivo) | Cmax (Rattus norvegicus) | half-life [9] | EC50 (MCF7 [10]) | IC50 (Estrogen receptor [11]) |
| --- | --- | --- | --- | --- | --- | --- | --- | --- | --- | --- | --- | --- | --- |
| CC(C)c1ccc(N2CCc3cc(O)ccc3C2(C)c2ccc(OCCN3CCCCC3)cc2)cc1 (centres undefined) | 14% | 3.4 nM | 3690 nM | 4780 nM | < 0.1 nM | 71 nM | – | – | – | – | – | – | – |
| CC(C)c1cccc(N2CCc3cc(O)ccc3C2(C)c2ccc(OCCN3CCCCC3)cc2)c1 (centres undefined) | 16% | 27 nM | 1100 nM | 492 nM | < 0.4 nM | 46 nM | 16.1 nM | – | – | – | – | – | – |
| CC1(c2ccc(OCCN3CCCCC3)cc2)c2ccc(O)cc2CCN1c1cccc(O)c1 (centres undefined) | 10% | 2 nM | 304 nM | 47 nM | < 0.1 nM | 34 nM | – | – | – | – | – | – | – |
| CC1(c2ccc(OCCN3CCCC3)cc2)c2ccc(O)cc2CCN1c1ccc(Cl)cc1 (centres undefined) | 10% | 6.2 nM | 302 nM | 531 nM | < 0.1 nM | 27 nM | 3.3 nM | – | – | – | – | – | – |
| CC1(c2ccc(OCCN3CCCCC3)cc2)c2ccc(O)cc2CCN1c1ccc(F)cc1 (centres undefined) | 13% | – | 317 nM | 92 nM | – | – | – | 64.9 mL/min/kg | 56% | 16 nM | 7.1 h | – | – |
| Oc1ccc2c(c1)CCN(c1ccccc1)C2c1ccc(OCCN2CCCCC2)cc1 (centres undefined) | – | – | – | – | – | – | – | 51.9 mL/min/kg | 42% | 31 nM | 3.5 h | < 0.15 pnM | – |
| CN(C)c1cccc(N2CCc3cc(O)ccc3C2(C)c2ccc(OCCN3CCCCC3)cc2)c1 (centres undefined) | 18% | 36 nM | 3110 nM | 2180 nM | < 0.5 nM | 71 nM | 19.8 nM | – | – | – | – | – | – |
| CC1(c2ccc(OCCN3CCCCC3)cc2)c2ccc(O)cc2CCN1c1ccccc1 (centres undefined) | 13% | 4 nM | 104 nM | 83 nM | < 0.1 nM | 29 nM | – | 116 mL/min/kg | 23% | 5.2 nM | 5.2 h | – | – |
| CC1(c2ccc(OCCN3CCCC3)cc2)c2ccc(O)cc2CCN1c1ccc(F)cc1 (centres undefined) | 16% | 3.5 nM | 204 nM | 82 nM | < 0.1 nM | 31 nM | – | 45.2 mL/min/kg | 53% | 20 nM | 8.6 h | – | – |
| CC1(c2ccc(OCCN3CCCCC3)cc2)c2ccc(O)cc2CCN1c1ccc(Cl)cc1 (centres undefined) | 8% | 5.2 nM | 396 nM | 552 nM | < 0.1 nM | 35 nM | – | – | – | – | – | – | – |
| CC1(c2ccc(OCCN3CCCCC3)cc2)c2ccc(O)cc2CCN1c1cccc(Cl)c1 (centres undefined) | 18% | 8 nM | 284 nM | 159 nM | < 0.1 nM | 49 nM | – | – | – | – | – | – | – |
| Oc1ccc2c(c1)CCN(c1ccccc1)C2c1ccc(F)cc1 (centres undefined) | – | – | – | – | 1 nM | – | – | – | – | – | – | – | – |
| Cc1ccc(N2CCc3cc(O)ccc3C2(C)c2ccc(OCCN3CCCCC3)cc2)cc1 (centres undefined) | 9% | 4 nM | 421 nM | 486 nM | < 0.1 nM | 28 nM | 2.9 nM | – | – | – | – | – | – |
| Cl.Oc1ccc2c(c1)CC[C@H](c1ccccc1)[C@@H]2c1ccc(OCCN2CCCC2)cc1 | – | – | – | – | 0.02 nM | – | – | 55.7 mL/min/kg | 38% | 15.5 nM | 5.2 h | – | – |
| CCC(=C(c1ccc(O)cc1)c1ccc(OCCN(C)C)cc1)c1ccccc1 | 31% | 8.5 nM | – | – | 0.12 nM | – | – | – | – | – | – | – | – |
| Oc1ccc2c(c1)CCN(c1ccccc1)C2c1ccc(OCCN2CCCC2)cc1 (centres undefined) | 34% | 29 nM | 166 nM | 291 nM | < 0.1 nM | 21 nM | 10.7 nM | 55 mL/min/kg | 73% | 55 nM | 3 h | – | – |
| CC1(c2ccc(OCCN3CCCC3)cc2)c2ccc(O)cc2CCN1c1cccc(F)c1 (centres undefined) | 5% | 3.8 nM | 123 nM | 198 nM | < 0.1 nM | 39 nM | – | – | – | – | – | – | – |
| CC1(c2ccc(OCCN3CCCC3)cc2)c2ccc(O)cc2CCN1c1cccc(Cl)c1 (centres undefined) | 20% | 7 nM | 272 nM | 106 nM | < 0.1 nM | 66 nM | – | – | – | – | – | – | – |
| CN(C)c1cccc(N2CCc3cc(O)ccc3C2(C)c2ccc(OCCN3CCCC3)cc2)c1 (centres undefined) | 19% | 32 nM | 2200 nM | 2970 nM | < 0.5 nM | 94 nM | 19 nM | – | – | – | – | – | – |
| Cc1ccc(N2CCc3cc(O)ccc3C2(C)c2ccc(OCCN3CCCC3)cc2)cc1 (centres undefined) | 14% | 4.1 nM | 354 nM | 448 nM | < 0.1 nM | 31 nM | – | – | – | – | – | – | 3.5 nM |
| CC1(c2ccc(OCCN3CCCC3)cc2)c2ccc(O)cc2CCN1c1cccc(O)c1 (centres undefined) | 15% | 2 nM | 190 nM | 33 nM | < 0.5 nM | – | – | 130 mL/min/kg | 15% | 5.3 nM | 5.9 h | – | – |
| CC1(c2ccc(OCCN3CCCCCC3)cc2)c2ccc(O)cc2CCN1c1ccccc1 (centres undefined) | 13% | 6 nM | 200 nM | 80 nM | < 0.1 nM | 56 nM | – | – | – | – | – | – | – |
| CC(C)c1ccc(N2CCc3cc(O)ccc3C2(C)c2ccc(OCCN3CCCC3)cc2)cc1 (centres undefined) | 10% | 3.2 nM | 1970 nM | 4970 nM | < 0.1 nM | 44 nM | – | – | – | – | – | – | – |
| CC1(c2ccc(OCCN3CCCC3)cc2)c2ccc(O)cc2CCN1c1ccccc1 (centres undefined) | – | – | 227 nM | 83 nM | – | 38 nM | – | – | – | – | – | – | – |
| Cl.O=C(c1ccc(OCCN2CCCCC2)cc1)c1c(-c2ccc(O)cc2)sc2cc(O)ccc12 [RALOXIFENE HYDROCHLORIDE] | – | – | – | – | 0.02 nM | – | – | 158 mL/min/kg | – | 7.5 nM | 1.7 h | – | – |
| CC/C(=C(\c1ccccc1)c1ccc(OCCN(C)C)cc1)c1ccccc1 [TAMOXIFEN] | – | – | – | – | 10 nM | – | – | – | – | – | – | – | – |
